Columns and labels:
eIF2α = eIF2α phosphorylation-promoting activity (western blotting of 293A cell lysates); assay type: cell-based; conditions: 293A cells, 16 hours at 37° C., Compound No. 1 at 5 μM, halofuginone at 50 nM, thapsigargin at 200 nM, FIG. 3
Procedure: • Host cells: 293A cells • Evaluation compound: Compound No. 1 of the present invention was used, and […] thereof was dissolved in 20 μL of DMSO to prepare a 20 mM solution. • Thapsigargin: (Cayman Chemical Company)
10 mg was dissolved in 76.8 mL of DMSO to prepare a 200 μM solution. • Halofuginon: (Cayman Chemical Company)
5 mg was dissolved in 554.2 μL of DMSO to prepare a 20 mM solution.
The above-mentioned 293A cells were seeded in a 96-well plate at 5×10^5 cells/well, and were cultured overnight in a DMEM solution of 10% fetal bovine serum (FBS). The next day, the medium was changed to a DMEM solution of 10% fetal bovine serum (FBS) containing Compound No. 1 at 5 μM, halofuginone at 50 nM, or thapsigargin at 200 nM, and the cells were cultured at 37° C. for 16 hours. After the cells had been washed with a PBS buffer, the cells were lysed with a RIPA buffer to extract proteins, and the proteins were separated according to size by an electrophoresis method of SDS-PAGE. The expression amount of an endoplasmic reticulum stress marker was measured by a western blotting method.

mouse naive CD4+ T cells = test: Th17 cell differentiation-suppressing activity (flow cytometry); assay type: cell-based; conditions: Compound No. 1 at 5 μM, halofuginone at 50 nM, 5 days of differentiation culture, FIG. 5
Procedure: Evaluation compound: Compound No. 1 of the present invention was used, and […] thereof was dissolved in 20 μL of DMSO to prepare a 20 mM solution. • Halofuginon: (Cayman Chemical Company)
5 mg was dissolved in 554.2 μL of DMSO to prepare a 20 mM solution. • Th17 cell inducer: A Th17 cell differentiation induction kit containing IL-6 and TGFβ1 as main components (CellXVivo Mouse Th17 Cell Differentiation Kit: R&D Systems) • Mouse helper T cell differentiation induction kit CDK017 (Techne Corporation)
Measurement was performed in accordance with an instruction manual of Techne Corporation. First, a cell culture plate was coated with an anti-hamster CD3 antibody. Mouse spleen cells were isolated into single cells, and mouse naive CD4^+ T cells were isolated using a mouse naive CD4^+ T cell isolation kit (MagCellect). The number of cells was counted. The isolated mouse naive CD4^+ T cells were dispersed in a mouse Th17 differentiation medium at 1×10^6 cells/mL. Compound No. 1 and halofuginone were added to the mouse Th17 differentiation medium at 5 μM and 50 nM, respectively. Next, the medium having the cells dispersed therein was added to the plate coated with the anti-hamster CD3 antibody, and humidified culture was continued for 3 days at 37° C. in the presence of 5% CO2. On the 3rd day, the medium was refreshed by adding an equal amount of the mouse Th17 differentiation medium without removing the original culture medium. Humidified culture was continued for 2 days at 37° C. in the presence of 5% CO2. After the 5 days of differentiation culture, the differentiated mouse Th17 cells were subjected to flow cytometry to analyze the expression of cytokines, and the number of cells differentiated into Th17 cells was determined.

human topoisomerase I = target: T1, human topoisomerase I (Homo sapiens, UniProt P11387); test: Human topoisomerase I DNA relaxation assay (ProFoldin kit); assay type: biochemical; conditions: 5 μL of evaluation sample solution (100 μM), fluorescence 485/535 nm, FIG. 4
T1 construct: purchased ProFoldin HRA100KE
T1 sequence (P11387 1-765): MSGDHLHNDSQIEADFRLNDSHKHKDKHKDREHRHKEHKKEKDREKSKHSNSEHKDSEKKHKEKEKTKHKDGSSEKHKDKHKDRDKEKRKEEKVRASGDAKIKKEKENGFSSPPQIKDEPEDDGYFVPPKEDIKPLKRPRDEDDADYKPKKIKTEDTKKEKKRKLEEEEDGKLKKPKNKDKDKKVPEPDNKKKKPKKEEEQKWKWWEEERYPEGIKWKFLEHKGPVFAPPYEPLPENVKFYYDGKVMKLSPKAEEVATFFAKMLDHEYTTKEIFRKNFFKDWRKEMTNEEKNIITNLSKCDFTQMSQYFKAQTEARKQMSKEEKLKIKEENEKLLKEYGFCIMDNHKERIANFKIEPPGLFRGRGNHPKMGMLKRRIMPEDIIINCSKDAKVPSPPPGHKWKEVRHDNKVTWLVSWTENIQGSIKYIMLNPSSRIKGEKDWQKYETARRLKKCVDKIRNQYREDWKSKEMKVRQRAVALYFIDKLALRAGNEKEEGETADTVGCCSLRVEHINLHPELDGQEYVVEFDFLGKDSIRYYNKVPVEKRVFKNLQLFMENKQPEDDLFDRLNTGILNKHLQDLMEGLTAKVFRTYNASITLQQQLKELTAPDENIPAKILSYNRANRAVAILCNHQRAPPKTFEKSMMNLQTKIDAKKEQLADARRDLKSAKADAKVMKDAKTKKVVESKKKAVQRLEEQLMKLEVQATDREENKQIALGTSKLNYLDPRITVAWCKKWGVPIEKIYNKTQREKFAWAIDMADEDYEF
Procedure: (§1) • Evaluation compound: Compound No. 1 of the present invention was used, and […] thereof was dissolved in 20 μL of DMSO to prepare a 20 mM solution. • Camptothecin: (FUJIFILM Wako Pure Chemical Corporation) 100 mg was dissolved in 57.4 mL of DMSO to prepare a 5 mM solution. • Etoposide: (FUJIFILM Wako Pure Chemical Corporation) 25 mg was dissolved in 424.8 μL of DMSO to prepare a 100 mM solution. • Human topoisomerase I/DNA relaxation assay kit […] (Manufactured by ProFoldin) • Human topoisomerase II/DNA relaxation assay kit HD[…] (Manufactured by ProFoldin) Measurement was performed in accordance with an instruction manual of ProFoldin. […] After the reaction, centrifugation was performed at 1,300 rpm for 30 seconds, and the reaction liquid was poured into a spin-column. The spin-column was rotated at 1,300 rpm for 2 minutes, and the liquid that had flowed out of the column was poured into a 96-well black plate. The liquid that had flowed out was subjected to a reaction by adding a fluorescent dye solution (up to 150 μL). The intensity of fluorescence excited with light at 485 nm was measured at 535 nm.

human topoisomerase II = test: Human topoisomerase II DNA relaxation assay (ProFoldin kit); assay type: biochemical; conditions: 5 μL of evaluation sample solution (100 μM), fluorescence 485/535 nm, FIG. 4
Procedure: as §1

| Compound | eIF2α phosphorylation-promoting effect (phosphorylated eIF2α expression amount) (eIF2α) | suppression of differentiation from mouse naive CD4+ T cells into Th17 cells (mouse naive CD4+ T cells) | topoisomerase-inhibiting activity, human topoisomerase I (human topoisomerase I) | topoisomerase-inhibiting activity, human topoisomerase II (human topoisomerase II) | further results |
| --- | --- | --- | --- | --- | --- |
| O=C(CC1NCCCC1O)Cn1cnc2cc(Br)c(Cl)cc2c1=O (stereo not shown) [halofuginone, reference compound] | eIF2α phosphorylation-promoting effect | capable of inhibiting the induction of differentiation into Th17 cells |  |  |  |
| 1-(2-chloro-5-methylphenyl)-4-oxo-7-(4-pyridyl)-naphthyridine [Compound No. 1] | had an eIF2α phosphorylation-promoting effect | remarkably suppressed differentiation | did not show topoisomerase-inhibiting activity | did not show topoisomerase-inhibiting activity | eIF2α phosphorylation-promoting effect (phosphorylated eIF2α expression amount) (eIF2α; listed as No. 1): eIF2α phosphorylation-promoting effect; topoisomerase-inhibiting activity, human topoisomerase I (human topoisomerase I; listed as No. 1): free of topoisomerase-inhibiting activity; topoisomerase-inhibiting activity, human topoisomerase II (human topoisomerase II; listed as No. 1): free of topoisomerase-inhibiting activity; suppression of differentiation from mouse naive CD4+ T cells into Th17 cells (mouse naive CD4+ T cells; listed as No. 1): has Th17 cell differentiation-suppressing activity |
| COc1cc([C@@H]2c3cc4c(cc3[C@@H](O[C@@H]3O[C@@H]5CO[C@@H](C)O[C@H]5[C@H](O)[C@H]3O)[C@H]3COC(=O)[C@H]23)OCO4)cc(OC)c1O [etoposide, reference compound] |  |  |  | remarkably reduced topoisomerase II activity |  |
| C/C=C(/C)C(=O)O[C@H]1C(C)=C2[C@H]([C@@H]1OC(=O)CCCCCCC)[C@@](C)(OC(C)=O)C[C@H](OC(=O)CCC)[C@@]1(O)[C@H]2OC(=O)[C@@]1(C)O [thapsigargin, reference compound] | eIF2α phosphorylation-promoting effect |  |  |  |  |
| CC[C@@]1(O)C(=O)OCc2c1cc1n(c2=O)Cc2cc3ccccc3nc2-1 [camptothecin, reference compound] |  |  | remarkably reduced topoisomerase I activity |  |  |
